Measured values reported in patent US6087493A, “Porphyrin compounds as telomerase inhibitors” (Regents of the University of Texas System, priority 1998, dated 2000).
Read-outs that look alike come from different tables or passages of the source.

Tests used:
[1] = test system: MCF7 cells; experiment: Cell cycle analysis in MCF7 cells; type: cell-based, human
Method: The effects of TMPyP4 on the cell cycle were assessed by flow cytometry by measuring the percentage of cells in G1/G0, S, and G2/M phases, with and without treatment with the porphyrin. Cells were stained with 50 μg/ml propidium iodide in a hypotonic sodium citrate solution with 0.3% NP-40 and 1.0 mg/ml RNase-A at 1.0×10^6 cells/ml, vortexed and stained for 30 min at room temperature in the dark. Prior to flow cytometric measurements, samples were filtered through a 37 μm nylon mesh into 12×75 mm tubes and stored at 4° C. until analysis within 24 h. All samples were analyzed with an EPICS ELITE flow cytometer (Coulter Cytometry, Miami, Fla.) using a 15 m Watt argon ion laser operated at 6 Amps of power at 488 nm for fluorochrome excitation. Photomultiplier tube voltage was adjusted for each control sample to position the G0G1 to channel 240 on a 1024 channel presentation. The propidium iodide emission was collected through a 675 nm long pass filter. Histograms were analyzed for cell cycle compartments using MultiCycle-PLUS Version 3.0 (Phoenix Flow Systems, San Diego, Calif.). Histograms all had 50K events collected to maximize the statistical validity of the compartmental analysis.
The inventors examined whether the treatment of MCF7 cells with TMPyP4 affected the cell cycle.

[2] = mice; cited from earlier work
[3] = test system: MCF7 cells; experiment: Nuclear localization of TMPyP4 in MCF7 cells; type: cell-based, human
Method: MCF7 cells were seeded at 5×10^5 cells per flask and cultured in the presence of 0, 50, or 100 μM TMPyP4 for 7 days with one exchange of medium. The cells were harvested with trypsin-EDTA, washed with PBS and counted using a Coulter counter. The cells were then pelleted by centrifugation at 700 g and lysed in a hypotonic solution (0.1×PBS);the resulting lysate was sedimented at 700 g for 10 min. The supernatant was removed and the pellet was dissolved in 0.5 ml of 2% SDS. Absorbance of the supernatants and pellet was measured at 423 nm. TMPyP4 diluted in 2% SDS containing 1 mg/ml salmon sperm DNA was used for the standard curve.
Several reports indicate that porphyrins localize specifically in tumor tissue, although sites of subcellular localization may vary widely with porphyrin structure and net charge (De Paolis et al., 1985). […] To gain insight into the subcellular distribution of cationic porphyrins, the inventors have cultured MCF7 cells with 0, 50, or 100 μM TMPyP4 for 7 days.

[4] = test system: HeLa cells; experiment: Chromosome fusion in HeLa cells; type: cell-based, human; conditions: 3 μM, 2-4 days
[5] = test system: MCF-7; experiment: Cytotoxicity (MTT) MCF-7; type: cell-based, human; conditions: Homo sapiens, MCF7; MCF-7 (breast), 4-7 days; read-out: IC 50 cytotoxicity
Method: (§1) The cells were cultured in the presence of the porphyrins incubator for 4-7 days and then treated with 3-(4,5-dimethylthiazol-2-yl)-2,5-diphenyl-tetrazolium bromide (MTT). Formazan concentration was quantitated by absorbance at 570 nm.

[6] = test system: HeLa; experiment: cells; type: cell-based, human; conditions: Homo sapiens; HeLa, MTT (n = 3 ± SEM); read-out: Cytotoxicity
[7] = test system: telomere length in MCF7 cells; experiment: Telomere length analysis in MCF7 cells; type: cell-based, human; conditions: 1 and 10 μM, by day 8 (about 6 population doublings)
Method: DNA was extracted from a minimum of 5×10^6 cells by SDS, proteinase K treatment, then purified and quantitated as previously described (Strahl and Blackburn, 1991). Approximately 1 μg of total DNA was digested with Mse I; the digested DNA was size fractionated by agarose gel electrophoresis and Southern blotted. The blots were hybridized with a ^32 P-labeled 0.5 kb PCR™ DNA fragments composed of the telomere repeat d(TTAGGG), which served as a probe for the telomeres. The hybridized probe was detected by autoradiography and each lane on the film was analyzed by phosphoimage analysis (Molecular Dynamics).
Telomeres shorten at an average rate of 65-100 base pairs per cell division (Counter et al., 1992). To observe a significant effect of an agent on telomere length, e.g., shortening the telomeres by >1 kilobase in MCF7 cells (5.7 kbases), a minimum of […] population doubling times will be required.

[8] = test system: cultured human dermal fibroblasts; conditions: Georgiou et al., 1994, cited from earlier work
[9] = test system: MX-1 mammary carcinoma; conditions: for # CR's: n=20
Method: A MX-1 human breast tumor adjuvant model employed nude mice (Harlan Sprague Dawley, Inc.). The mice were implanted s.c. by trocar with fragments of MX-1 mammary carcinomas harvested from S.C. growing MX-1 tumors in nude mice hosts. When tumors were approximately 5 mm×5 mm in size (about 10 days after inoculation), the animals received cytoxan at 200 mg/kg. After tumors regressed (fifteen days after cytoxan administration), the animals were pair-matched into groups of mice, each of which was eartagged and followed individually throughout the experiment. The i.p. daily administration of TMPyP4 at 10 and 20 mg/kg five times weekly, began the day the animals were pairmatched (Day 1). TMPyP4 20 mg/kg was administered for 47 days. At the 10 mg/kg dose, TMPyP4 was administered continuously to the end of the study.
Mice were weighed twice weekly and tumor measurements were taken by calipers twice weekly, starting on Day 1. These tumor measurements were converted to mg tumor weight by a well-known formula, and from these calculated tumor weights, the termination date for each individual mouse was determined. Mice were euthanized when their tumors reached approximately 2 grams. Time to tumor recurrence and survival were monitored during the study.

[10] = test system: PC3; experiment: Cytotoxicity (MTT) PC3; type: cell-based, human; conditions: Homo sapiens, PC-3; PC3 (prostate), 4-7 days; read-out: IC 50 cytotoxicity
Method: as §1

[11] = test system: BT-20; experiment: Cytotoxicity (MTT) BT-20; type: cell-based, human; conditions: Homo sapiens; BT-20 (breast), 4-7 days; read-out: IC 50 cytotoxicity
Method: as §1

C[n+]1ccc(-c2c3nc(c(-c4cc[n+](C)cc4)c4ccc([nH]4)c(-c4cc[n+](C)cc4)c4nc(c(-c5cc[n+](C)cc5)c5ccc2[nH]5)C=C4)C=C3)cc1 [TMPyP4, 5,10,15,20-tetra-(N-methyl-4-pyridyl)porphine]
G2/M phase fraction ([1]; 100 μM, days 4, 8 and 15): time-dependent gradual increase in the G2/M phase
MCF7 cells arrested in G2/M ([1]; long-term exposure): not more than 32%
accumulation in tumor tissue [2]: accumulation in tumor tissue in mice
cytoplasm as % of nuclear fraction concentration ([3]; 50 μM TMPyP4, 7 days): 3.3%
porphyrin concentration in the nuclear pellet ([3]; 50 μM TMPyP4, 7 days): 1.39 nmoles/10^6 cells
porphyrin in cytoplasm ([3]; 50 μM TMPyP4, 7 days): 47.3 pmoles/10^6 cells
cytoplasm as % of nuclear pellet concentration ([3]; 100 μM TMPyP4, 7 days): 5.5%
porphyrin concentration in the nuclear fraction ([3]; 100 μM TMPyP4, 7 days): 7.81 nmoles/10^6 cells
porphyrin in cytoplasmic fraction ([3]; 100 μM TMPyP4, 7 days): 434 pmoles/10^6 cells
calculated concentration in the nucleus ([3]; assuming nucleus 1/100 of cell volume): 1.4 to 78 mM
calculated concentration in the cytoplasm ([3]; assuming volume of 10^6 cells 10-100 μl): 0.47 to 434 µM
fused chromosomes [4]: number of fused chromosomes was increased in comparison with the untreated controls
IC50 [5]: 49.6 µM
IC50 [6]: 18.7 ± 3.89 µM
effect on telomere shortening [7]: No detectable effects on telomere shortening
uptake / nuclear accumulation [8]: rapidly accumulate (within min) in the nuclei of cultured human dermal fibroblasts
uptake / nuclear accumulation ([8]; listed as tetra(N-methyl-4-pyridyl)porphyrin): taken up by cells and localized in organelles known to contain DNA
# PS Remaining ([9]; 10 mg/kg): 0
# Partial Shrinkage ([9]; 10 mg/kg): 2
# Recur at 2 g ([9]; 10 mg/kg): 6
# Remaining w/Tumors ([9]; 10 mg/kg): 1
# of Recur ([9]; 10 mg/kg): 8
# of Survivors ([9]; 10 mg/kg): 11
# of Toxic Deaths ([9]; 10 mg/kg): 1
% CR's ([9]; 10 mg/kg): 90%
Avg Day of Recur ([9]; 10 mg/kg): 25 days
MDS ([9]; 10 mg/kg): 55
MDS-Partial Shrinkages ([9]; 10 mg/kg): 36.0
Mean Tumor Wt. ([9]; 10 mg/kg): 11.52 mg
# CR's ([9]; 10 mg/kg i.p. daily five times weekly): 18
# PS Remaining ([9]; 20 mg/kg): 0
# Partial Shrinkage ([9]; 20 mg/kg): 5
# Recur at 2 g ([9]; 20 mg/kg): 8
# Remaining w/Tumors ([9]; 20 mg/kg): 0
# of Recur ([9]; 20 mg/kg): 9
# of Survivors ([9]; 20 mg/kg): 6
# of Toxic Deaths ([9]; 20 mg/kg): 1
% CR's ([9]; 20 mg/kg): 75%
Avg Day of Recur ([9]; 20 mg/kg): 19.33 days
MDS ([9]; 20 mg/kg): 67.4
MDS-Partial Shrinkages ([9]; 20 mg/kg): 44.6
# CR's ([9]; 20 mg/kg i.p. daily five times weekly): 15
IC50 [10]: 184 µM
IC50 [11]: 106 µM
